Each structure is given as a SMILES string. Entries after “also recorded” stand apart in the source; their conditions may differ. Read-outs that look alike come from different tables or passages of the source.

Series [1] deals with AMPA/kainate receptors. The series is described as follows: PSI (inhibition of population spike) test in CA1 neurones of hippocampus. Format: cell-based. The following applies: non-cumulative IC50, rat hippocampus. As for the experimental part:
PSI (inhibition of population spike) test
The field potentials (population spike) evoked by electric stimulation of the Shaffer collateral comissural pathway were measured in the CAl neurones of rat hippocampus. The population spike can be inhibited by AMPA/kainate antagonists. The non-cumulative IC50 values are shown in Table I. /Tarnawa, I., Molnár, P., Gaál, L., Andrási, F.: Inhibition of hippocampal field potentials by GYKI 52466 in vitro and in vivo, Acta Physiol. Hung., 79(2), 163-9 (1992)/.

Series [2] deals with male NMRI mice. The series is described as follows: Global ischemia induced by magnesium chloride (gasping time). Format: in vivo. The following applies: for Effect in % (increase in gasping time): dose 30 mg/kg ip., 30 minutes before magnesium chloride iv.; for ID50 ip.: gasping time, calculated by linear regression. As for the experimental part:
Global Ischemia Induced by Magnesium Chloride
The experiments were carried out as described by Berga et al. /Berga, P., Beckett, P. R., Roberts, D. J., Llenas, J., Massingham, R.: Synergistic interactions between piracetam and dihydroergocristine in some animal models of cerebral hypoxia and ischemia, Arzneim.-Forsch., 36, 1314-1320 (1986)/. Groups of 10 male NMRI mice weighing 20 to 25 g were treated ip. with the test substance in […]. After 30 minutes, saturated aqueous magnesium chloride solution was applied iv. (5 ml/kg) resulting in an immediate cardiac arrest. The elapsed time between the iv. injection and the last gasping was measured (gasping time). The means of the treated groups were expressed as percent of control. Statistical analysis was done by ANOVA followed by DUNCAN test. The dose resulting in 50% descrease in gasping time (ID50) was calculated by linear regression.

The subject of series [3] is AMPA/kainate receptors. The experiment in a line: QNTI (inhibition of quisqualate neurotoxicity) test. Format: cell-based, rat. The note with it: Inhibition of quisqualate neurotoxicity in primer cortical culture. As for the experimental part:
QNTI (inhibition of quisqualate neurotoxicity (test)
The method is based on the phenomenon that the neurotixic effect of quisqualate /i.e. (S)-alpha-amino-3,5-dioxo-1,2,4-oxadiazolidine-2-propanoic acid, an AMPA/kainate agonist/ on the primer telencephalic cell culture of the rat could be inhibited by AMPA/kainate antagonists. The test was performed as described in the literature /Kovács, A. D., Egyed, A.: Protection against non-NMDA receptor-mediated excitotoxicity by GYKI 52466 in mature telencephalic cultures of the rat, Neurobiology, 4, 59-72 (1996)/.

The next series relates to male DBA/2j strain mice. The experiment in a line: Audiogenic seizure (AS) test. The following applies: for ED50: Mus musculus, 0.25 h. Format: in vivo. As for the experimental part:
Audiogenic seizure (AS) test
The experiments were carried out by the slightly modified method of De Sarro et al. /De Sarro, G. B., Croucher, M. J. and Meldrum, B. S.: Anticonvulsant action of DS 103-282, Neuropharm., 23, 525 (1984)/. Groups of 8 male DBA/2j strain mice weighing 7 to 14 g were treated ip. with the test substance in 10 ml/kg volume. 15 minutes later, the animals were placed into a covered glass container (30 cm in diameter) and exposed to a 14 kHz 120 dB tone for 60 s at the most. Seizure response was assessed using the following scale: 0=normal behaviour, 1=wild running, 2=clonus, 3=tonic flexor seizure, 4=tonic extensor seizure. The maximum response during the 60 s exposure was recorded for each animal. Lethality was also noted. The ED50 values were determined by the method of Litchfield and Wilcoxon concerning the inhibition of clonic seizures and tonic extensor convulsions.

Series [4] relates to male NMRI mice. The series is described as follows: Muscle relaxant effect (inclined screen according to Hoppe). The series is classed as in vivo. The following applies: ip.; for ED50: Mus musculus, determined at the time of maximal effect; for Muscle relaxant effect duration: time of last reading when the effect was at least 30%. As for the experimental part:
The assay was done according to Hoppe in male NMRI mice weighing 20 to 25 g, with 10 animals in each group /Hoppe, J. O., J. Pharmacol. Exp. Ther., 100, 333 (1950)/. Following the ip. treatment of animals, the number of mice showing muscle weakness were recorded at every 10 minutes in the first hour and at half hour intervals afterwards. The animals falling off the 60° inclined screen within 30 seconds were considered positive. ED50 values of the given compounds were determined at each time. The duration of effect was defined as the time of last reading when the effect was at least 30%.

A short description of a further series: Acute toxicity. The following applies: both sexes, mouse, in vivo. As for the experimental part: The study was done in NMRI mice of both sexes, weighing 20 to 25 g, with 6 animals in each dose-group. The test compounds were applied at […], and the maximal per os and ip. doses were 500 mg/kg and 300 mg/kg, respectively. The cumulative lethality was recorded on day 7. The animals were kept under standard laboratory conditions.

In series [5] the test system is male NMRI mice. The series is described as follows: Maximal electroshock test (MES). Format: in vivo. The following applies: Inhibition of maximal electroshock, ip., 30 minutes before shock; for ED50: Mus musculus. As for the experimental part: Maximal electroshock test (MES)
Male NMRI mice weighing 20 to 30 g were used for the method of Swinyard et al. /Swinyard, E. A., Brown, W. C. and Goodman, L.S.: Comparative assays of antiepileptic drugs in mice and rats, J. Pharmacol., 106, 319 (1952)//. The animals—10 in each group—were treated ip. either with various doses of the test substance or with vehicle. After 30 minutes, a 50 Hz, 40 mA electroshock was applied for 0.4 s through corneal electrodes. The number of animals that developed tonic extensor convulsion of the hind-limbs was registered, percent inhibition was calculated, and ED50 values were determined by the method of Litchfield and Wilcoxon /Litchfield, J. T., Wilcoxon, F. A.: A simplified method of evaluating dose-effect experiments, J. Pharmacol. Exp. Ther., 96, 99 (1949)/ and summarized in Table IV.
A general note: In the maximal electroshock model the usual endpoint is tonic extension of the hind limbs.

`Nc1ccc(C2=NN=C(c3nnn[nH]3)Cc3cc4c(cc32)OCO4)cc1` [Example 48, 5-(4-Aminophenyl)-8-(5-tetrazolyl)-9H-1,3-dioxolo/4,5-h//2,3/benzodiazepine] displayed a melting point of 244 to 246 °C.
Consider `CC1=NN=C(c2ccc(N)cc2)c2cc3c(cc2C1)OCO3` [“A”, 8-Methyl-5-(4-aminophenyl)-9H-1,3-dioxolo/4,5-h/-/2,3/benzodiazepine, reference compound], for which the concentration for half-maximal inhibition (IC50) in the series on AMPA/kainate receptors [1] is 9.1 µM; in the series on AMPA/kainate receptors [3] it was 12 µM. In addition, in the series with male NMRI mice [2], the “Effect in % (increase in gasping time)” value turned out to be 55%. The ID50 ip. in the series with male NMRI mice [2] was 30 mg/kg. Moreover, the median effective dose (ED50) came to 4.3 mg/kg in the series on male DBA/2j strain mice (ip, read-out: AS convulsion clonic ED50); 3.6 mg/kg in the series on male DBA/2j strain mice (ip, read-out: AS convulsion tonic ED50); 24.5 mg/kg with male NMRI mice [4]; 6.9 mg/kg with male NMRI mice [5]. Moreover, the “Muscle relaxant effect duration” value with male NMRI mice [4] is 1 h. The 50% lethal dose (LD50) at 7 day in “Acute toxicity” (po, NMRI mice, p.o., cumulative lethality on day 7, maximal dose 500 mg/kg, read-out: Appr. LD50 p.o.) is 500 mg/kg; in “Acute toxicity” (NMRI mice, ip., cumulative lethality on day 7, maximal dose 300 mg/kg, read-out: Appr- LD50 ip.), 392 mg/kg.
Consider `NC(=O)C1=NN=C(c2ccc(N)cc2)c2cc3c(cc2C1)OCO3` [Example 32, 5-(4-Aminophenyl)-9H-1,3-dioxolo/4,5-h//2,3/benzodiazepine-8-carboxylic amide], for which the “MES ED50” value in the series with male NMRI mice [5] worked out at 2.5 mg/kg.
Take `CC1(C#N)Cc2cc3c(cc2C(c2ccc([N+](=O)[O-])cc2)=NN1)OCO3` (racemic) [Example 58, (±)-8-Cyano-7,8-dihydro-8-methyl-5-(4-nitrophenyl)-9H-1,3-dioxolo/4,5-h//2,3/benzodiazepine]: the melting point is 162 to 164 °C.
As to `CC1(C#N)Cc2cc3c(cc2C(c2ccc(N)cc2)=NN1C(=O)CCNCCN1CCOCC1)OCO3` (racemic) [Example 89, (±)-5-(4-Aminophenyl)-8-cyano-7,8-dihydro-8-methyl-7-/3-(2-morpholinoethylamino)-propionyl/-9H-1,3-dioxolo/4,5-h//2,3/-benzodiazepine], the IC50 in the series with AMPA/kainate receptors [1] stood at 3 µM; with AMPA/kainate receptors [3], 5.4 µM. Besides, the “Effect in % (increase in gasping time)” value in the series with male NMRI mice [2] came to 117%. Further, the ID50 ip. in the series with male NMRI mice [2] is on record as 7 mg/kg. Also, in the series with male DBA/2j strain mice (Inhibition of sound induced seizure, tonic extensor convulsions, DBA/2j mice, ip., 15 minutes), the “AS convulsion tonic ED50” value was “The compound according to Example 89 was significantly more effective at the inhibition of maximal electroshock and sound induced tonic convulsions than the reference compound “A” as shown in Table TV”. Moreover, the 50% effective dose (ED50) with male DBA/2j strain mice (Inhibition of sound induced seizure, clonic seizures, DBA/2j mice, ip., 15 minutes, read-out: AS convulsion clonic ED50) amounted to 5.4 mg/kg; in the series on male DBA/2j strain mice (Inhibition of sound induced seizure, tonic extensor convulsions, DBA/2j mice, ip., 15 minutes, read-out: AS convulsion tonic ED50), 1.2 mg/kg; in the series with male NMRI mice [4], 31.3 mg/kg; in the series with male NMRI mice [5], 2.3 mg/kg. Besides, the “Muscle relaxant effect duration” value in the series on male NMRI mice [4] was found to be 1 h. The LD50 at 7 day in “Acute toxicity” (NMRI, ip, 300 mg/kg) is roughly 300 mg/kg; in “Acute toxicity” (NMRI, po, 500 mg/kg), greater than 500 mg/kg. In the series on male NMRI mice [5], the “MES ED50” value is “The compound according to Example 89 was significantly more effective at the inhibition of maximal electroshock and sound induced tonic convulsions than the reference compound “A” as shown in Table TV”.
As for `N#CC1=NN=C(c2ccc(N)cc2)c2cc3c(cc2C1)OCO3` [Example 47, 5-(4-Aminophenyl)-8-cyano-9H-1,3-dioxolo/4,5-h//2,3/benzodiazepine], in the series with male NMRI mice [2], the “Effect in % (increase in gasping time)” value was found to be 89% and the ID50 ip. is listed as 15 mg/kg.
`CC1(C#N)Cc2cc3c(cc2C(c2ccc([N+](=O)[O-])cc2)=NN1C(=O)CCl)OCO3` (racemic) [Example 73, (±)-8-Cyano-7,8-dihydro-7-chloroacetyl-8-methyl-5-(4-nitrophenyl)-9H-1,3-dioxolo/4,5-h//2,3/benzodiazepine]: the IC50 turned out to be 6.3 µM with AMPA/kainate receptors [1] and 7.4 µM with AMPA/kainate receptors [3]. The 50% effective dose (ED50) with male NMRI mice [4] was found to be 22.6 mg/kg. Also, in the series with male NMRI mice [4], the “Muscle relaxant effect duration” value is listed as “substantially longer; also recorded: higher than 4 hr”. The LD50 at 7 day in the series “Acute toxicity” (NMRI, ip, 300 mg/kg) was roughly 300 mg/kg; in the series “Acute toxicity” (NMRI, po, 500 mg/kg), greater than 500 mg/kg.

Usually melting point stands for the temperature, or range, at which the solid turns liquid. As usually defined, the IC50 is the concentration that gives 50% inhibition. What is called ED50 is the dose at which the effect has come halfway, by size or by number of responders. In general, LD50 refers to the dose at which mortality reaches 50%.

The record behind these values is patent publication US6562810B1, “8-substituted-9H-1,3-dioxolo/4,5-h//2,3/benzodiazepine derivatives, as AMPA/kainate receptor inhibitors” (Egis Gyogyszergyar RT., priority 1997, dated 2003).
